From patent US20260285850A1, “SUBSTITUTED OXAZOLIDINONES AND IMIDAZOLINONES AS HERBICIDES” (FMC CORPORATION, priority 2023, published 2026)

Experiments:
Format in all cases: in vivo
[1] = test system: horseweed (Erigeron canadensis); test: Test A postemergence application, visual injury rating 0-100; details: Postemergence, 10 days, 0 is no effect, 100 is complete control
How it was run: (§1)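 Plants in a loam and sand soil blend were treated with each test chemical, in a non-phytotoxic solvent system including surfactant, either sprayed on seeded soil before emergence or applied after emergence at the one- to two-leaf stage. Ten days later in the greenhouse, plants were compared with untreated controls and visually rated from 0 (no effect) to 100 (complete control).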

[2] = test system: barnyardgrass (Echinochloa crus-galli); test: as above; details: Postemergence, 10 days, 0 is no effect, 100 is complete control
How it was run: as §1

[3] = test system: palmer (palmer amaranth, palmer pigweed, Amaranthus palmeri); test: as above; details: Postemergence, 10 days, 0 is no effect, 100 is complete control
How it was run: as §1

soybean (Glycine max) [4] = test: as above; details: Postemergence, 10 days, 0 is no effect, 100 is complete control
How it was run: as §1

[5] = test system: wheat (Triticum aestivum); test: as above; details: Postemergence, 10 days, 0 is no effect, 100 is complete control
How it was run: as §1

[6] = test system: ryegrass, Italian (italian ryegrass, Lolium multiflorum); test: as above; details: Postemergence, 10 days, 0 is no effect, 100 is complete control
How it was run: as §1

[7] = test system: ragweed (common ragweed, Ambrosia artemisiifolia); test: as above; details: Postemergence, 10 days, 0 is no effect, 100 is complete control
How it was run: as §1

[8] = test system: blackgrass (Alopecurus myosuroides); test: as above; details: Postemergence, 10 days, 0 is no effect, 100 is complete control
How it was run: as §1

[9] = test system: galium (catchweed bedstraw, Galium aparine); test: as above; details: Postemergence, 10 days, 0 is no effect, 100 is complete control
How it was run: as §1

[10] = test system: green foxtail (Setaria viridis); test: as above; details: Postemergence, 10 days, 0 is no effect, 100 is complete control
How it was run: as §1

[11] = test system: oat, wild (wild oat, Avena fatua); test: as above; details: Postemergence, 10 days, 0 is no effect, 100 is complete control
How it was run: as §1

corn (Zea mays) [12] = test: as above; details: Postemergence, 10 days, 0 is no effect, 100 is complete control
How it was run: as §1

kochia (Bassia scoparia) [13] = test: as above; details: Postemergence, 10 days, 0 is no effect, 100 is complete control
How it was run: as §1

[14] = test system: barnyardgrass (Echinochloa crusgalli); test: Test B flooded paddy test, visual plant response rating 0-100; details: 250 g ai/ha, Flood, applied to paddy water, evaluated after 13 days
How it was run: (§2)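 Visual scores versus untreated controls were recorded 13 days after treatment of greenhouse-held plants. At the 2-leaf stage, pots were flooded 3 cm above the soil surface and compounds added straight to the water.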

[15] = test system: ducksalad (Heteranthera limosa); test: as above; details: 250 g ai/ha, Flood, applied to paddy water, evaluated after 13 days
How it was run: as §2

[16] = test system: sedge, umbrella (small-flower umbrella sedge, Cyperus difformis); test: as above; details: 250 g ai/ha, Flood, applied to paddy water, evaluated after 13 days
How it was run: as §2

rice (Oryza sativa) = test: as above; details: 250 g ai/ha, Flood, applied to paddy water, evaluated after 13 days
How it was run: as §2

[17] = test system: barnyardgrass (Echinochloa crus-galli); test: Test A preemergence soil spray, visual injury rating 0-100; details: 10 days, 0 = no effect, 100 = complete control
How it was run: as §1

[18] = test system: palmer (palmer amaranth, palmer pigweed, Amaranthus palmeri); test: as above; details: 10 days, 0 = no effect, 100 = complete control
How it was run: as §1

soybean (Glycine max) [19] = test: as above; details: 10 days, 0 = no effect, 100 = complete control
How it was run: as §1

[20] = test system: wheat (Triticum aestivum); test: as above; details: 10 days, 0 = no effect, 100 = complete control
How it was run: as §1

[21] = test system: ryegrass, Italian (italian ryegrass, Lolium multiflorum); test: as above; details: 10 days, 0 = no effect, 100 = complete control
How it was run: as §1

[22] = test system: ragweed (common ragweed, Ambrosia artemisiifolia); test: as above; details: 10 days, 0 = no effect, 100 = complete control
How it was run: as §1

[23] = test system: blackgrass (Alopecurus myosuroides); test: as above; details: 10 days, 0 = no effect, 100 = complete control
How it was run: as §1

[24] = test system: green foxtail (Setaria viridis); test: as above; details: 10 days, 0 = no effect, 100 = complete control
How it was run: as §1

[25] = test system: oat, wild (wild oat, Avena fatua); test: as above; details: 10 days, 0 = no effect, 100 = complete control
How it was run: as §1

corn (Zea mays) [26] = test: as above; details: 10 days, 0 = no effect, 100 = complete control
How it was run: as §1

kochia (Bassia scoparia) [27] = test: as above; details: 10 days, 0 = no effect, 100 = complete control
How it was run: as §1

CC(C)OC(=O)C1C=CC(NC(=O)C2(C)CN(c3cc(Cl)cc(Cl)c3)C(=O)O2)C1 (stereo not shown) [Compound 43]
Horseweed plant response rating (0 to 100 scale) ([1]; 125 g ai/ha): 60 | Horseweed plant response rating (0 to 100 scale) ([1]; 500 g ai/ha): 80 | Barnyardgrass plant response rating (0 to 100 scale) ([2]; 125 g ai/ha): 100 | Barnyardgrass plant response rating (0 to 100 scale) ([2]; 500 g ai/ha): 100 | Amaranth, Palmer / Pigweed, Palmer plant response rating (0 to 100 scale) ([3]; 125 g ai/ha): 100 | Amaranth, Palmer / Pigweed, Palmer plant response rating (0 to 100 scale) ([3]; 500 g ai/ha): 100 | Soybean plant response rating (0 to 100 scale) (soybean (Glycine max) [4]; 125 g ai/ha): 80 | Soybean plant response rating (0 to 100 scale) (soybean (Glycine max) [4]; 500 g ai/ha): 80 | Wheat plant response rating (0 to 100 scale) ([5]; 125 g ai/ha): 90 | Wheat plant response rating (0 to 100 scale) ([5]; 500 g ai/ha): 90 | Ryegrass, Italian plant response rating (0 to 100 scale) ([6]; 125 g ai/ha): 90 | Ryegrass, Italian plant response rating (0 to 100 scale) ([6]; 500 g ai/ha): 90 | Ragweed plant response rating (0 to 100 scale) ([7]; 125 g ai/ha): 60 | Ragweed plant response rating (0 to 100 scale) ([7]; 500 g ai/ha): 80 | Blackgrass plant response rating (0 to 100 scale) ([8]; 125 g ai/ha): 100 | Blackgrass plant response rating (0 to 100 scale) ([8]; 500 g ai/ha): 100 | Galium plant response rating (0 to 100 scale) ([9]; 125 g ai/ha): 70 | Galium plant response rating (0 to 100 scale) ([9]; 500 g ai/ha): 70 | Foxtail, Green plant response rating (0 to 100 scale) ([10]; 125 g ai/ha): 90 | Foxtail, Green plant response rating (0 to 100 scale) ([10]; 500 g ai/ha): 90 | Oat, Wild plant response rating (0 to 100 scale) ([11]; 125 g ai/ha): 90 | Oat, Wild plant response rating (0 to 100 scale) ([11]; 500 g ai/ha): 90 | Corn plant response rating (0 to 100 scale) (corn (Zea mays) [12]; 125 g ai/ha): 100 | Corn plant response rating (0 to 100 scale) (corn (Zea mays) [12]; 500 g ai/ha): 100 | Kochia plant response rating (0 to 100 scale) (kochia (Bassia scoparia) [13]; 125 g ai/ha): 80 | Kochia plant response rating (0 to 100 scale) (kochia (Bassia scoparia) [13]; 500 g ai/ha): 80 | Plant response rating, Barnyardgrass (0 to 100 scale, 0 is no effect and 100 is complete control) [14]: 85 | Plant response rating, Ducksalad (0 to 100 scale, 0 is no effect and 100 is complete control) [15]: 90 | Plant response rating, Sedge, Umbrella (0 to 100 scale, 0 is no effect and 100 is complete control) [16]: 95 | Plant response rating, Rice (0 to 100 scale, 0 is no effect and 100 is complete control) (rice (Oryza sativa)): 20 | Barnyardgrass plant response rating (0 to 100 scale) ([17]; 125 g ai/ha): 100 | Barnyardgrass plant response rating (0 to 100 scale) ([17]; 500 g ai/ha): 100 | Amaranth, Palmer plant response rating (0 to 100 scale) ([18]; 125 g ai/ha): 100 | Amaranth, Palmer plant response rating (0 to 100 scale) ([18]; 500 g ai/ha): 100 | Soybean plant response rating (0 to 100 scale) (soybean (Glycine max) [19]; 125 g ai/ha): 40 | Soybean plant response rating (0 to 100 scale) (soybean (Glycine max) [19]; 500 g ai/ha): 60 | Wheat plant response rating (0 to 100 scale) ([20]; 125 g ai/ha): 90 | Wheat plant response rating (0 to 100 scale) ([20]; 500 g ai/ha): 90 | Ryegrass, Italian plant response rating (0 to 100 scale) ([21]; 125 g ai/ha): 90 | Ryegrass, Italian plant response rating (0 to 100 scale) ([21]; 500 g ai/ha): 90 | Ragweed plant response rating (0 to 100 scale) ([22]; 125 g ai/ha): 30 | Ragweed plant response rating (0 to 100 scale) ([22]; 500 g ai/ha): 80 | Blackgrass plant response rating (0 to 100 scale) ([23]; 125 g ai/ha): 90 | Blackgrass plant response rating (0 to 100 scale) ([23]; 500 g ai/ha): 100 | Foxtail, Green plant response rating (0 to 100 scale) ([24]; 125 g ai/ha): 90 | Foxtail, Green plant response rating (0 to 100 scale) ([24]; 500 g ai/ha): 100 | Oat, Wild plant response rating (0 to 100 scale) ([25]; 125 g ai/ha): 90 | Oat, Wild plant response rating (0 to 100 scale) ([25]; 500 g ai/ha): 90 | Corn plant response rating (0 to 100 scale) (corn (Zea mays) [26]; 125 g ai/ha): 80 | Corn plant response rating (0 to 100 scale) (corn (Zea mays) [26]; 500 g ai/ha): 90 | Kochia plant response rating (0 to 100 scale) (kochia (Bassia scoparia) [27]; 125 g ai/ha): 80 | Kochia plant response rating (0 to 100 scale) (kochia (Bassia scoparia) [27]; 500 g ai/ha): 90
